According to patent US5070210A, “Novel ketenimines as intermediates for insecticides” (ICI Americas Inc., priority 1990, dated 1991):

Experiments:
Format in all cases: in vivo
[1] = system: Housefly [Musca domestica]; experiment: Housefly insecticidal test; details: μg per 25 female flies; mortality after 48 hours
Protocol: (§1) The compounds in Tables 1 and 2 above were tested for insecticidal activity using the following testing procedures. LC50 values, based on the results of these tests and calculated according to dosage-mortality curves, are expressed in Table 3.
Housefly [Musca domestica]:
Test compounds were diluted in acetone and aliquots pipetted onto the bottom of aluminum dishes. To ensure even spreading of the chemical on the bottom of the dishes, 1 ml of acetone containing 0.01% peanut oil was also added to each dish. After all solvents had evaporated, the dishes were placed in circular cardboard cages containing 25 female houseflies, 1-2 days old. The cages were covered on the bottom with cellophane and on the top with tulle netting, and each contained a sugar-water saturated cotton plug for maintenance of the flies. Mortality was recorded after 48 hours. Test levels ranged from 100 μg/25 female houseflies downward. The LC-50 value is expressed below in Table 3 under the heading "HF", in terms of μg of the test compound per 25 female flies.

[2] = system: Cabbage Looper [Trichoplusia ni (Hubner)]; experiment: Cabbage looper insecticidal test; details: second-instar larvae, percent in solution; 3-5 days
Protocol: as §1
Cabbage Looper [Trichoplusia ni (Hubner)]:
Test compounds were diluted in a 50-50 acetone-water solution. Cotyledons of hyzini squash (Calabacita abobrinha), approximately 1×1.5 inches, were immersed in the test solutions for 2-3 seconds and placed on a wire screen to dry. The dried leaves were placed in petri dishes containing a moistened piece of filter paper and infested with 5 second-instar cabbage looper larvae. The dishes were placed in a high humidity chamber. Mortality of the larvae was recorded 3-5 days later. Test concentrations ranged from 0.1% downward. The LC-50 value is expressed below in Table 3 under the heading "CL" in terms of percent of the test compound in solution.

[3] = system: Tobacco Budworm [Heliothis virescens (Fabricius)] eggs; experiment: Tobacco budworm egg test; details: 2-day old eggs, percent in solution
Protocol: as §1
Tobacco Budworm [Heliothis virescens (Fabricius)]:
(b). Eggs: Paper towel patches of 2-day old eggs of the tobacco budworm were dipped in acetone solutions of the test compound and placed in petri dishes containing a portion of larval rearing medium. Treated eggs were maintained at 78° F. and mortality was recorded after all control eggs had hatched and the young larvae were feeding on the media. Test concentrations ranged from 0.1% downward. The LC-50 value is expressed below in Table 3 under the heading "TBW-E" in terms of percent of the test compound in the solution.

Compound | LC50, HF [1] [µg] | LC50, CL [2] [%] | LC50, TBW, E (TBW-E) [3] [%]
Cc1cc(Br)ccc1N=C(OCc1cccc(Oc2ccccc2)c1)C(C)C [Compound 133] | 66 | 0.005 | 0.1
CC(C)(C)C(=Nc1cccc(Br)c1)OCc1cccc(Oc2ccccc2)c1 [Compound 134] | > 100 | 0.015 | > 0.1
CC(C)C(=Nc1cccc(I)c1)OCc1cccc(Oc2ccccc2)c1 [Compound 136] | 9 | 0.004 | 0.08
CSc1ccc(N=C(OCc2cccc(Oc3ccccc3)c2)C(Cl)Cl)cc1 [Compound 141] | 35 | < 0.1 | > 0.1
Cc1cccc(N=C(OCc2cccc(Oc3ccccc3)c2)C(C)C)c1C [Compound 148] | 18 | 0.0025 | 0.025
COc1ccc(C)cc1N=C(OCc1cccc(Oc2ccccc2)c1)C(C)C [Compound 150] | 89 | 0.01 | > 0.1
CCCCc1ccc(N=C(OCc2cccc(Oc3ccccc3)c2)C(C)C)cc1 [Compound 152] | > 100 | 0.009 | > 0.1
CCC(=Nc1ccc(CC)cc1)OCc1cccc(Oc2ccccc2)c1 [Compound 157] | 25 | 0.009 | > 0.1
Cc1ccc(N=C(OCc2cccc(Oc3ccccc3)c2)C(C)C)cc1C [Compound 158] | 9 | 0.003 | 0.1
CCOc1ccc(N=C(OCc2cccc(Oc3ccccc3)c2)C(C)(C)C)cc1 [Compound 164] | > 100 | 0.005 | > 0.1
CC(C)c1ccc(N=C(OCc2cccc(Oc3ccccc3)c2)C(C)(C)C)cc1 [Compound 165] | > 100 | 0.007 | > 0.1
CSc1cccc(N=C(OCc2cccc(Oc3ccccc3)c2)C(C)C)c1 [Compound 166] | 22 | 0.009 | > 0.1
Cc1ccc(N=C(OCc2cccc(Oc3ccccc3)c2)C(C)(C)C)cc1C [Compound 167] | > 100 | 0.02 | > 0.1
CCOC(=O)c1cccc(N=C(OCc2cccc(Oc3ccccc3)c2)C(C)(C)C)c1 [Compound 168] | > 100 | 0.1 | > 0.1
COc1ccc(N=C(OCc2cccc(Oc3ccccc3)c2)C(C)C)cc1OC [Compound 169] | 10 | 0.009 | > 0.1
CC(=O)c1cccc(N=C(OCc2cccc(Oc3ccccc3)c2)C(C)C)c1 [Compound 170] | 37 | 0.1 | > 0.1
CCOc1cccc(N=C(OCc2cccc(Oc3ccccc3)c2)C(C)C)c1 [Compound 171] | 80 | 0.01 | > 0.1
CC(C)(C)C(=Nc1cccc([N+](=O)[O-])c1)OCc1cccc(Oc2ccccc2)c1 [Compound 175] | > 100 | 0.018 | > 0.1
CC(C)C(=Nc1ccc2c(c1)OC(C)(C)O2)OCc1cccc(Oc2ccccc2)c1 [Compound 182] | 28 | 0.0006 | 0.04
CC(C)C(=Nc1ccc2c(c1)OCO2)OCc1cccc(Oc2ccccc2F)c1 [Compound 183] | 10 | 0.00075 | 0.075
CCCC(=Nc1ccc(OC)cc1)OCc1cccc(Oc2ccccc2)c1 [Compound 184] | 61 | 0.024 | > 0.1
CCC(C)C(=Nc1ccc2c(c1)OCO2)OCc1cccc(Oc2ccccc2)c1 (stereo not drawn) [Compound 185] | 13 | 0.0006 | 0.075
CC(C)C(=Nc1ccc2c(c1)OCO2)OCc1cccc(Oc2ccccc2F)c1 [Compound 190] | 7.5 | 0.0004 | 0.023

Compound | LC50, HF [1] [µg] | LC50, CL [2] [%] | LC50, TBW, E (TBW-E) [3] [%]
CC(C)C(=Nc1cccc(C(F)(F)F)c1)OCc1cccc(Oc2cccc(F)c2)c1 [Compound 192] | 25 | 0.0012 | 0.07
CC(C)C(=Nc1ccc(Cl)c(C(F)(F)F)c1)OCc1cccc(Oc2cccc(F)c2)c1 [Compound 195] | > 100 | 0.002 | > 0.1
CC(C)C(=Nc1ccc(F)cc1)OCc1cccc(Oc2ccc(F)cc2)c1 [Compound 197] | > 100 | 0.0004 | 0.05
CC(C)C(=Nc1cccc(F)c1)OCc1cccc(Oc2ccc(F)cc2)c1 [Compound 200] | 7.5 | 0.00075 | 0.1
COc1cccc(N=C(OCc2cccc(Oc3ccc(F)cc3)c2)C(C)C)c1 [Compound 201] | 15 | 0.004 | > 0.1
CC(C)C(=Nc1ccc(F)cc1)OCc1cccc(Oc2cccc(Cl)c2)c1 [Compound 205] | 50 | 0.004 | > 0.1
CC(C)C(=Nc1ccc(F)cc1)OCc1cccc(Oc2ccc(F)cc2F)c1 [Compound 206] | 50 | 0.0017 | > 0.1
CC(C)C(=Nc1ccc(Cl)c(Cl)c1)OCc1cccc(Oc2cccc(Cl)c2)c1 [Compound 207] | > 100 | 0.008 | > 0.1
CC(C)C(=Nc1ccc(C#N)cc1)OCc1cccc(Oc2cccc(Cl)c2)c1 [Compound 208] | 27 | 0.0035 | > 0.1
CCC(C)C(=Nc1ccc(Cl)c(Cl)c1)OCc1cccc(Oc2ccc(F)cc2)c1 (stereo not drawn) [Compound 211] | 61 | 0.0017 | > 0.1
CC(C)C(=Nc1ccc(F)c(F)c1)OCc1cccc(Oc2ccc(C#N)cc2)c1 [Compound 212] | 20 | 0.0005 | 0.045
CC(C)C(=Nc1ccc(Cl)c(Cl)c1)OCc1cccc(Oc2ccc(F)cc2F)c1 [Compound 213] | > 100 | 0.00075 | > 0.1
CC(C)C(=Nc1ccc(F)c(F)c1)OCc1cccc(Oc2ccc(F)cc2F)c1 [Compound 214] | 19 | 0.0003 | 0.04
CC(C)C(=Nc1ccc(F)c(Cl)c1)OCc1cccc(Oc2cc(F)cc(F)c2)c1 [Compound 215] | 75 | 0.00075 | > 0.1
CC(C)C(=Nc1ccc(Cl)c(Cl)c1)OCc1cccc(Oc2ccc(F)c(F)c2)c1 [Compound 218] | 25 | 0.0003 | 0.025
COc1ccc(Oc2cccc(COC(=Nc3ccc(F)cc3)C(C)C)c2)cc1 [Compound 220] | 85 | 0.007 | > 0.1
COc1ccc(Oc2cccc(COC(=Nc3ccc(F)c(Cl)c3)C(C)C)c2)cc1 [Compound 221] | 62 | 0.0027 | > 0.1
CC(C)C(=Nc1ccc(C#N)c(F)c1)OCc1cccc(Oc2ccc(F)cc2)c1 [Compound 222] | 32 | 0.0015 | > 0.1
COc1ccc(Oc2cccc(COC(=Nc3ccc(Cl)c(Cl)c3)C(C)C)c2)cc1 [Compound 223] | 43 | 0.008 | > 0.1
CC(C)(Cl)C(=Nc1ccc(F)c(Cl)c1)OCc1cccc(Oc2ccc(F)cc2)c1 [Compound 224] | > 100 | 0.001 | > 0.1
CC(C)C(=Nc1ccc(C#N)cc1)OCc1cccc(Oc2ccc(F)cc2)c1 [Compound 227] | 10 | 0.0015 | 0.1
CC(C)C(=Nc1cccc(Br)c1)OCc1cccc(Oc2ccc(F)cc2)c1 [Compound 229] | 20 | 0.0005 | > 0.1
